Measurements taken from patent publication US5441732A, “Reversible gelation emulsion compositions and methods of use” (Allergan, Inc., priority 1992, dated 1995).
Like-named read-outs stand apart in the source and are kept apart here.

How the values were obtained:
[1] = Drug solubility in oil at room temperature; type: physicochemical; conditions: for Drug solubility in Miglyol: Miglyol 812
[2] = cited from earlier work

Row | SMILES | Drug solubility in Diethyl Phthalate [1] | solubility in diethyl phthalate [1] | Drug solubility in Miglyol [1] | water solubility ([2]; pH 4.0) | water solubility ([2]; pH 7.4)
1 | CC(=O)[C@@]1(O)CC[C@H]2[C@@H]3C[C@H](C)C4=CC(=O)C=C[C@]4(C)[C@@]3(F)[C@@H](O)C[C@@]21C [Fluorometholone] | 0.075% | relatively low | < 0.001% | – | –
2 | CC(C(=O)O)c1ccc(-c2ccccc2)c(F)c1 (stereo not shown) [Flurbiprofen (free acid)] | 12-20% | – | 2-4% | very small | higher
